Results from ChEMBL document CHEMBL5724914, “Linking interpersonal differences in gut microbiota composition and drug biotransformation activity” (2024).

How the values were obtained:
[1] = (§1) The drug is tested on Z-005 corresponding to metagenome with ENA study accession number: PRJEB37062 and ENA sample accession number: ERS12561805 for biotransformation under anaerobic condition. The drug concentrations were measured over 9 timepoints collected between 0 and 24 hours of incubation by liquid-chromatography-coupled mass spectrometry (LC–MS); conditions: 2 µM
[2] = (§2) The drug is tested on Z-017 corresponding to mouse gut metagenome with ENA study accession number: PRJEB37062 and ENA sample accession number: ERS12561816 for biotransformation under anaerobic condition. The drug concentrations were measured over 9 timepoints collected between 0 and 24 hours of incubation by liquid-chromatography-coupled mass spectrometry (LC–MS); conditions: 2 µM
[3] = as §2, with “WLS-073” for “Z-017”, “human” for “mouse”, “ERS12561749” for “ERS12561816”; conditions: 2 µM
[4] = as §1, with “Z-010” for “Z-005”, “ERS12561810” for “ERS12561805”; conditions: 2 µM
[5] = human gut metagenome, 24 h, 2 µM
[6] = as §2, with “Z-030” for “Z-017”, “ERS12561829” for “ERS12561816”; conditions: 2 µM
[7] = human gut metagenome, 24 h, 2 µM; remark: listed apart in the source
[8] = as §1, with “Z-008” for “Z-005”, “ERS12561808” for “ERS12561805”; conditions: 2 µM
[9] = human gut metagenome, 24 h, 2 µM; remark: listed apart in the source
[10] = as §1, with “Z-027” for “Z-005”, “ERS12561826” for “ERS12561805”; conditions: 2 µM
[11] = human gut metagenome, 24 h, 2 µM; remark: listed apart in the source
[12] = as §2, with “WLS-077” for “Z-017”, “human” for “mouse”, “ERS12561750” for “ERS12561816”; conditions: 2 µM
[13] = as §2, with “Z-007” for “Z-017”, “rat” for “mouse”, “ERS12561807” for “ERS12561816”; conditions: 2 µM
[14] = human gut metagenome, 24 h, 2 µM; remark: listed apart in the source
[15] = as §2, with “WLS-350” for “Z-017”, “human” for “mouse”, “ERS12561789” for “ERS12561816”; conditions: 2 µM
[16] = as §2, with “WLS-052” for “Z-017”, “human” for “mouse”, “ERS12561747” for “ERS12561816”; conditions: 2 µM
[17] = as §2, with “WLS-038” for “Z-017”, “human” for “mouse”, “ERS12561745” for “ERS12561816”; conditions: 2 µM
[18] = human gut metagenome, 24 h, 2 µM; remark: listed apart in the source
[19] = as §1, with “Z-012” for “Z-005”, “ERS12561812” for “ERS12561805”; conditions: 2 µM
[20] = human gut metagenome, 24 h, 2 µM; remark: listed apart in the source
Further: call rule not given here.

Bacterial Biotransformation [1] | Bacterial Biotransformation [2] | Bacterial Biotransformation [3] | Bacterial Biotransformation [4] | Bacterial Biotransformation [5] | Bacterial Biotransformation [6] | Bacterial Biotransformation [7] | Bacterial Biotransformation [8] | Bacterial Biotransformation [9] | Bacterial Biotransformation [10] | Bacterial Biotransformation [11] | Bacterial Biotransformation [12] | Bacterial Biotransformation [13] | Bacterial Biotransformation [14] | Bacterial Biotransformation [15] | Bacterial Biotransformation [16] | Bacterial Biotransformation [17] | Bacterial Biotransformation [18] | Bacterial Biotransformation [19] | Bacterial Biotransformation [20] | SMILES
Compound NOT metabolized | Compound NOT metabolized | Compound NOT metabolized | Compound NOT metabolized | Compound NOT metabolized | Compound NOT metabolized | Compound metabolized | Compound NOT metabolized | Compound NOT metabolized | Compound NOT metabolized | Compound NOT metabolized | Compound NOT metabolized | Compound NOT metabolized | Compound metabolized | Compound NOT metabolized | Compound NOT metabolized | Compound NOT metabolized | Compound metabolized | Compound NOT metabolized | Compound metabolized | CS(=O)(=O)O.OC(CCN1CCCCC1)(c1ccccc1)c1ccccc1 [PRIDINOL METHANESULFONATE]
Compound NOT metabolized | Compound NOT metabolized | Compound NOT metabolized | Compound metabolized | Compound NOT metabolized | Compound NOT metabolized | Compound NOT metabolized | Compound NOT metabolized | Compound NOT metabolized | Compound NOT metabolized | Compound NOT metabolized | Compound NOT metabolized | Compound NOT metabolized | Compound metabolized | Compound metabolized | Compound NOT metabolized | Compound metabolized | Compound metabolized | Compound NOT metabolized | Compound NOT metabolized | CC(CN1c2ccccc2Sc2ccccc21)N(C)C (stereo not given) [PROMETHAZINE]
Compound NOT metabolized | Compound NOT metabolized | Compound NOT metabolized | Compound NOT metabolized | Compound NOT metabolized | Compound NOT metabolized | Compound metabolized | Compound NOT metabolized | Compound NOT metabolized | Compound NOT metabolized | Compound NOT metabolized | Compound NOT metabolized | Compound NOT metabolized | Compound metabolized | Compound NOT metabolized | Compound NOT metabolized | Compound NOT metabolized | Compound metabolized | Compound NOT metabolized | Compound metabolized | OCCOCCN1CCN(C2=Nc3ccccc3Sc3ccccc32)CC1 [QUETIAPINE]
Compound NOT metabolized | Compound NOT metabolized | Compound NOT metabolized | Compound metabolized | Compound metabolized | Compound NOT metabolized | Compound metabolized | Compound metabolized | Compound metabolized | Compound NOT metabolized | Compound NOT metabolized | Compound metabolized | Compound NOT metabolized | Compound metabolized | Compound metabolized | Compound metabolized | Compound metabolized | Compound metabolized | Compound metabolized | Compound metabolized | CCC(=O)NCC[C@@H]1CCc2ccc3c(c21)CCO3 [RAMELTEON]
Compound NOT metabolized | Compound metabolized | Compound NOT metabolized | Compound metabolized | Compound NOT metabolized | Compound NOT metabolized | Compound metabolized | Compound NOT metabolized | Compound metabolized | Compound NOT metabolized | Compound metabolized | Compound NOT metabolized | Compound NOT metabolized | Compound metabolized | Compound NOT metabolized | Compound NOT metabolized | Compound NOT metabolized | Compound NOT metabolized | Compound metabolized | Compound NOT metabolized | CNC(=C[N+](=O)[O-])NCCSCc1ccc(CN(C)C)o1 [RANITIDINE]
Compound metabolized | Compound NOT metabolized | Compound metabolized | Compound metabolized | Compound metabolized | Compound NOT metabolized | Compound metabolized | Compound metabolized | Compound metabolized | Compound NOT metabolized | Compound NOT metabolized | Compound metabolized | Compound NOT metabolized | Compound metabolized | Compound NOT metabolized | Compound metabolized | Compound metabolized | Compound metabolized | Compound metabolized | Compound metabolized | Nc1nc2ccc(OC(F)(F)F)cc2s1 [RILUZOLE]
Compound metabolized | Compound NOT metabolized | Compound metabolized | Compound metabolized | Compound metabolized | Compound NOT metabolized | Compound metabolized | Compound metabolized | Compound metabolized | Compound metabolized | Compound NOT metabolized | Compound metabolized | Compound NOT metabolized | Compound metabolized | Compound NOT metabolized | Compound metabolized | Compound metabolized | Compound metabolized | Compound metabolized | Compound metabolized | CC(C)c1nc(CN(C)C(=O)N[C@H](C(=O)N[C@@H](Cc2ccccc2)C[C@H](O)[C@H](Cc2ccccc2)NC(=O)OCc2cncs2)C(C)C)cs1 [RITONAVIR]
